Measured values: the NIST ThermoML archive (doi:10.1016/j.jct.2015.07.005)
Several values for one entry are separate records, joined by “and”; a condition that tells them apart may be missing. Equal entries are not always repeated.

Settings: Gas, Frequency=0.005 MHz, Spherical cavity resonance method

F/C=C/C(F)(F)F [trans-1,3,3,3-tetrafluoropropene]
Settings | speed of sound
279.9 K, 79.55 kPa | 146.69 m/s and 146.7 m/s
279.9 K, 157.55 kPa | 143.78 m/s
279.9 K, 241.33 kPa | 140.43 m/s
279.91 K, 79.56 kPa | 146.7 m/s
279.91 K, 241.34 kPa | 140.43 m/s
279.92 K, 157.55 kPa | 143.79 m/s
279.92 K, 241.34 kPa | 140.43 m/s
299.96 K, 80.04 kPa | 152.13 m/s
299.96 K, 239.74 kPa | 147.27 m/s
299.97 K, 80.03 kPa | 152.13 m/s
299.97 K, 159.07 kPa | 149.78 m/s
299.97 K, 239.75 kPa | 147.27 m/s
299.97 K, 361.26 kPa | 143.22 m/s
299.98 K, 80.03 kPa | 152.13 m/s
299.98 K, 159.07 kPa | 149.78 m/s
299.98 K, 239.74 kPa | 147.27 m/s
299.98 K, 361.27 kPa | 143.22 m/s
319.93 K, 552.34 kPa | 144.79 m/s
319.94 K, 98.42 kPa | 156.86 m/s
319.94 K, 195.83 kPa | 154.47 m/s
319.94 K, 195.84 kPa | 154.47 m/s
319.94 K, 400.99 kPa | 149.11 m/s
319.94 K, 552.38 kPa | 144.78 m/s
319.94 K, 552.39 kPa | 144.78 m/s
319.95 K, 98.42 kPa | 156.87 m/s
319.95 K, 195.84 kPa | 154.47 m/s
319.95 K, 400.99 kPa | 149.1 m/s
319.96 K, 98.42 kPa | 156.86 m/s
319.97 K, 790.74 kPa | 137.11 m/s
319.97 K, 790.76 kPa | 137.11 m/s
319.98 K, 790.76 kPa | 137.11 m/s
319.98 K, 790.77 kPa | 137.11 m/s
319.99 K, 790.81 kPa | 137.11 m/s
339.94 K, 1198.3 kPa | 134.8 m/s and 134.79 m/s
339.95 K, 199.81 kPa | 159.81 m/s
339.95 K, 199.82 kPa | 159.81 m/s
339.95 K, 311.18 kPa | 157.48 m/s
339.95 K, 311.19 kPa | 157.48 m/s
339.95 K, 511.43 kPa | 153.07 m/s
339.95 K, 511.55 kPa | 153.07 m/s
339.95 K, 797.03 kPa | 146.18 m/s
339.95 K, 797.04 kPa | 146.18 m/s
339.95 K, 1001.8 kPa | 140.68 m/s
339.95 K, 1001.9 kPa | 140.68 m/s
339.95 K, 1198.4 kPa | 134.8 m/s
339.96 K, 99.31 kPa | 161.86 m/s
339.96 K, 200.05 kPa | 159.82 m/s
339.96 K, 311.18 kPa | 157.48 m/s
339.96 K, 400.04 kPa | 155.58 m/s and 155.58 m/s
339.96 K, 511.39 kPa | 153.07 m/s
339.96 K, 797.05 kPa | 146.18 m/s
339.96 K, 1001.9 kPa | 140.68 m/s
339.97 K, 99.31 kPa | 161.86 m/s
339.97 K, 200.05 kPa | 159.82 m/s
339.97 K, 200.06 kPa | 159.82 m/s
339.97 K, 400.04 kPa | 155.58 m/s
339.97 K, 799.59 kPa | 146.12 m/s
339.98 K, 595.08 kPa | 151.15 m/s
339.98 K, 799.46 kPa | 146.12 m/s
339.98 K, 799.52 kPa | 146.12 m/s
359.95 K, 99 kPa | 166.68 m/s
359.95 K, 99.01 kPa | 166.68 m/s
359.96 K, 99 kPa | 166.68 m/s
359.96 K, 99.01 kPa | 166.69 m/s and 166.68 m/s
359.96 K, 307 kPa | 163.12 m/s
359.96 K, 510.35 kPa | 159.46 m/s
359.96 K, 808.74 kPa | 153.75 m/s
359.96 K, 1598.8 kPa | 135.69 m/s
359.97 K, 307 kPa | 163.12 m/s
359.97 K, 511.03 kPa | 159.45 m/s
359.97 K, 808.65 kPa | 153.75 m/s
359.97 K, 808.68 kPa | 153.75 m/s
359.97 K, 1174.2 kPa | 146.04 m/s
359.97 K, 1174.3 kPa | 146.04 m/s
359.97 K, 1598.8 kPa | 135.7 m/s
359.97 K, 2002.9 kPa | 123.58 m/s and 123.58 m/s
359.98 K, 1598.8 kPa | 135.7 m/s
359.98 K, 2002.9 kPa | 123.58 m/s
379.99 K, 98.62 kPa | 171.32 m/s
379.99 K, 98.63 kPa | 171.32 m/s
379.99 K, 297.94 kPa | 168.44 m/s
379.99 K, 452.13 kPa | 166.16 m/s
379.99 K, 784.29 kPa | 161.02 m/s
379.99 K, 784.34 kPa | 161.02 m/s
379.99 K, 1195.5 kPa | 154.18 m/s
379.99 K, 1195.6 kPa | 154.18 m/s
379.99 K, 2008.2 kPa | 138.61 m/s
380 K, 98.61 kPa | 171.32 m/s
380 K, 98.63 kPa | 171.32 m/s
380 K, 297.93 kPa | 168.44 m/s
380 K, 452.13 kPa | 166.16 m/s
380 K, 784.28 kPa | 161.02 m/s
380 K, 1195.5 kPa | 154.18 m/s
380 K, 1608.3 kPa | 146.68 m/s
380 K, 2008.2 kPa | 138.61 m/s
380 K, 2215.6 kPa | 134.03 m/s
380 K, 2215.7 kPa | 134.03 m/s
380 K, 2385.9 kPa | 130 m/s
380 K, 2386 kPa | 130 m/s
380 K, 2606.5 kPa | 124.35 m/s
380 K, 2606.6 kPa | 124.35 m/s
380.01 K, 2606.6 kPa | 124.35 m/s
380.01 K, 2822.2 kPa | 118.21 m/s
380.01 K, 2822.3 kPa | 118.22 m/s
380.02 K, 2822.3 kPa | 118.22 m/s
401.99 K, 98.41 kPa | 176.35 m/s
401.99 K, 98.44 kPa | 176.35 m/s
401.99 K, 98.45 kPa | 176.35 m/s
401.99 K, 98.46 kPa | 176.35 m/s
402 K, 98.39 kPa | 176.35 m/s
402 K, 98.4 kPa | 176.35 m/s
402 K, 98.42 kPa | 176.35 m/s
402 K, 98.43 kPa | 176.35 m/s
402 K, 98.44 kPa | 176.35 m/s
402 K, 98.45 kPa | 176.35 m/s
402 K, 98.46 kPa | 176.35 m/s
402 K, 299.24 kPa | 173.94 m/s
402 K, 299.25 kPa | 173.94 m/s
402 K, 299.26 kPa | 173.94 m/s
402 K, 503.14 kPa | 171.43 m/s
402 K, 504.13 kPa | 171.42 m/s
402 K, 504.78 kPa | 171.41 m/s
402 K, 504.99 kPa | 171.4 m/s
402 K, 505.27 kPa | 171.4 m/s
402 K, 505.76 kPa | 171.4 m/s
402 K, 505.81 kPa | 171.4 m/s
402 K, 505.96 kPa | 171.4 m/s
402 K, 506.02 kPa | 171.4 m/s
402.01 K, 502.88 kPa | 171.44 m/s
402.01 K, 503 kPa | 171.43 m/s
402.01 K, 505.02 kPa | 171.41 m/s
402.01 K, 793.53 kPa | 167.78 m/s
402.01 K, 793.54 kPa | 167.77 m/s and 167.77 m/s
402.01 K, 1189.8 kPa | 162.56 m/s and 162.56 m/s
402.01 K, 1595.9 kPa | 156.94 m/s
402.01 K, 1596 kPa | 156.94 m/s
402.02 K, 1595.8 kPa | 156.94 m/s and 156.94 m/s
402.02 K, 1595.9 kPa | 156.94 m/s
402.02 K, 1596 kPa | 156.94 m/s
402.02 K, 1596.1 kPa | 156.94 m/s
402.02 K, 1596.2 kPa | 156.94 m/s
402.02 K, 1596.3 kPa | 156.94 m/s
402.02 K, 1996.4 kPa | 151.09 m/s
402.03 K, 1996.4 kPa | 151.09 m/s and 151.09 m/s
402.03 K, 2385.1 kPa | 145.09 m/s
402.03 K, 2385.2 kPa | 145.1 m/s and 145.1 m/s
402.04 K, 2832 kPa | 137.75 m/s and 137.75 m/s
402.04 K, 2832.1 kPa | 137.75 m/s and 137.75 m/s
419.97 K, 100.24 kPa | 180.17 m/s
419.97 K, 100.26 kPa | 180.17 m/s
419.97 K, 100.28 kPa | 180.17 m/s
419.97 K, 298.93 kPa | 178.09 m/s
419.98 K, 100.2 kPa | 180.17 m/s
419.98 K, 100.21 kPa | 180.17 m/s
419.98 K, 100.22 kPa | 180.17 m/s
419.98 K, 100.23 kPa | 180.17 m/s
419.98 K, 100.24 kPa | 180.17 m/s
419.98 K, 100.25 kPa | 180.17 m/s
419.98 K, 100.27 kPa | 180.17 m/s
419.98 K, 100.28 kPa | 180.17 m/s
419.98 K, 298.92 kPa | 178.09 m/s
419.98 K, 298.93 kPa | 178.09 m/s
419.98 K, 476.26 kPa | 176.21 m/s
